Values joined by “and” are separate entries in the source; they are usually repeats but may differ in a detail not shown here. Equal values may be shown once.
Tests used:
[1] = tested on: A/California/7/09 (H1N1) (H1-CA09); conditions: mouse, in vivo
[2] = tested on: ANN/1203/04 (H5N1) highly pathogenic avian influenza virus; design: species or system ferret; conditions: in vivo, 25 mg/kg

SMILES: CCOC(=O)C1=C[C@@H](OC(CC)CC)[C@H](NC(C)=O)[C@@H](N)C1 [oseltamivir]
- survival [1]: succumbed to the infection
- mean day of death [2]: 12 and 9
- survival rate [2]: 100%

Reference: patent US11186627B2 (priority 2013, dated 2021)
